Test results from paper PMC3804605, “Expression and Antimicrobial Function of Beta-Defensin 1 in the Lower Urinary Tract” (PLoS ONE, 2013).

Tested on: UPEC strain UTI89
Test: Microdilution bactericidal assay of recombinant antimicrobial peptides (CFU count, MIC)
Type: cell-based, Escherichia coli
Settings: for minimum inhibition concentration (MIC), lowest peptide concentration inhibiting growth of 90% of the inoculum: UTI89 10^5 CFU, 0.3125-10 µM peptide in 50 µl 0.1X PBS, 3 hours at 37°C, then plated overnight on LB, CFU versus untreated bacteria; for bactericidal activity toward UPEC in vitro (in words): UTI89, recombinant peptide, microdilution assay
Method: Recombinant mBD-3 was synthesized in E. coli (5987-BD, R&D Systems, Minneapolis, MN). Recombinant mBD-14 was synthesized as a mature peptide in E. coli and purified as described. Antimicrobial activity of recombinant peptides was evaluated by microdilution assay. Briefly, UTI89 bacteria (10^5 CFU) were incubated with 0.3125, 0.625, 1.25, 2.5, 5, or 10 µM of mBD-3 or mBD-14 in 50 µl 0.1X PBS buffer for 3 hours at 37°C, then plated overnight on LB at 37°C. Next, the number of CFU at each concentration of peptide was determined. Using untreated bacteria as baseline, the minimum inhibition concentration (MIC) was identified by the lowest peptide concentration inhibiting growth of 90% of the inoculum as described previously. Sensitivity of the UTI89 bacterial strain to killing by antimicrobial peptides was verified with the use of recombinant human RNase 7, yielding MIC of 0.2-0.4 µM, consistent with published data[24].

Molecule | minimum inhibition concentration (MIC), lowest peptide concentration inhibiting growth of 90% of the inoculum [µM] | bactericidal activity toward UPEC in vitro (in words)
mBD-3: Recombinant mBD-3 synthesized in E. coli (5987-BD, R&D Systems); protein encoded by Defb3 (KKINNPVSCLRKGGRCWNRCIGNTRQIGSCGVPFLKCCKRK; UniProt Q9WTL0 23-63, looked up) | 1.25 to 2.5 | dose-dependent bactericidal activity
mBD-14: Recombinant mBD-14 synthesized as a mature peptide in E. coli and purified; protein encoded by Defb14 (FLPKTLRKFFCRIRGGRCAVLNCLGKEEQIGRCSNSGRKCCRKKK; UniProt Q7TNV9 23-67, looked up) |  | dose-dependent bactericidal activity
RNase 7: Recombinant human RNase 7, used to verify sensitivity of UTI89 to killing by antimicrobial peptides (protein, UniProt Q9H1E1 29-156, looked up) Ribonuclease 7: KPKGMTSSQWFKIQHMQPSPQACNSAMKNINKHTKRCKDLNTFLHEPFSSVAATCQTPKIACKNGDKNCHQSHGAVSLTMCKLTSGKHPNCRYKEKRQNKSYVVACKPPQKKDSQQFHLVPVHLDRVL | 0.2 to 0.4 | 
